Measurements from the SangsterLogP compilation.

Experiments:
[1] = not given; remark: listed apart in the source
[2] = method code SF-HPLC, from DOI: 10.1002/jps.2600840603, PMID: 7562403; settings: pH 7.4
[3] = method code SF-EIA, from DOI: 10.1016/s0022-2275(20)42614-8, PMID: 2280184; settings: pH 1.0
[4] = not given; remark: listed apart in the source
[5] = method code SF-HPLC, from DOI: 10.1002/jps.2600830407, PMID: 8046599; settings: pH 7.0
[6] = method code SF-HPLC, from DOI: 10.1016/j.ejps.2010.08.004, PMID: 20728535
[7] = method code SF-HPLC, from DOI: 10.1021/js950484a, PMID: 9002474; settings: pH 7.4
[8] = method code SF, from DOI: 10.1021/jm020886c, PMID: 12852752; settings: pH 7.4
[9] = method code SF-HPLC, from DOI: 10.1211/146080899128734820; settings: pH 2.0
[10] = method code SF, from DOI: 10.1016/s0960-894x(01)80459-5
[11] = method code SF, from DOI: 10.1021/jm000996o, PMID: 11087582; settings: pH 7.2
[12] = method code SF, from DOI: 10.1016/j.bmc.2011.10.022, PMID: 22100260; settings: pH 7.4
[13] = method code SF, from DOI: 10.4103/0250-474x.119813, PMID: 24302794; settings: pH 7.4
[14] = method code SF-HPLC, from Yao, Y.; Liao, Q.; Zeng, L.; Zhang, L.; Ma, Y.; Zeng, Y. (2009). Determination of the apparent oil-water partition coeffcient of neoandrographolide and effect of pH. Pharmacy Today, 19(10)8-10.; settings: pH 6.0
[15] = method code SF-AS, from PMID: 7170648; settings: pH 7.4
[16] = method code SF-HPLC, from DOI: 10.1002/jps.2600800905, PMID: 1800703; settings: pH 7.0
[17] = not given; remark: listed apart in the source
[18] = method code SF-RC, from DOI: 10.1016/s0969-8051(00)00170-0, PMID: 11323238; settings: pH 7.4
[19] = not given; remark: listed apart in the source
[20] = method code SF-RC, from DOI: 10.1016/j.nucmedbio.2014.05.001, PMID: 24969632; settings: pH 7.4
[21] = method code SF-RC, from DOI: 10.2174/1874471011003010009, PMID: 20657759; settings: pH 7.4
[22] = method code SF-AS, from PMID: 1586384
[23] = method code SF-AS, from PMID: 7460030; settings: pH 7.3
[24] = method code SF, from DOI: 10.1021/jm980124a, PMID: 9685245; settings: pH 13.0
[25] = not given; remark: listed apart in the source
[26] = not given; remark: listed apart in the source
[27] = not given; remark: listed apart in the source
[28] = not given; remark: listed apart in the source
[29] = not given; remark: listed apart in the source
[30] = not given; remark: listed apart in the source
[31] = method code SF-RC, from DOI: 10.1021/acs.jmedchem.6b01291.s001, PMID: 27696839; settings: pH 7.4
[32] = from Medić-Šarić, M; Mornar, A.; Badovinac-Črnjević, T; Jasprica, I. (2004). Experimental and calculation procedures for molecular lipophilicity: A comparative study for …; settings: pH 7.4
[33] = method code SF-AS, from DOI: 10.1016/0014-2999(72)90235-x, PMID: 4113999
[34] = method code SF, from DOI: 10.1021/jm950645n, PMID: 8576912
[35] = not given; remark: listed apart in the source
[36] = not given; remark: listed apart in the source
[37] = method code SF-HPLC, from DOI: 10.1211/0022357001774101, PMID: 10813545
[38] = not given; remark: listed apart in the source

Molecule `CC(C)(C)OC(=O)NC(Cc1ccccc1)C(=O)N1CCCC1C(=O)NCc1ccc(N)cc1` (centres undefined) has a logP of 2.34.

Work on `CC(C)C(Nc1ccc(C(F)(F)F)cc1Cl)C(=O)OC(C#N)c1cccc(Oc2ccccc2)c1` (racemic) yielded a logP [1] of 5.5.

`CCCC1O[C@@H]2C[C@H]3[C@@H]4CCC5=CC(=O)C=C[C@]5(C)[C@H]4[C@@H](O)C[C@]3(C)[C@]2(C(=O)CO)O1` (some centres undefined) showed a logD [2] of 3.55.

For `C[C@H](CCC(=O)NCC(=O)O)[C@H]1CC[C@H]2[C@@H]3C[C@H](O)[C@@H]4C[C@H](O)CC[C@]4(C)[C@H]3CC[C@]12C`, the logD [3] was 2.15.

In the case of `CCN(Cc1cccnc1)C(=O)CN(c1ccc(OC)nc1)S(=O)(=O)c1ccccc1C`, the logP [4] is reported as 2.24.

With `Cc1cn(C2CC(N=[N+]=[N-])C(COC(=O)CNC(=O)C34CC5CC(CC(C5)C3)C4)O2)c(=O)[nH]c1=O` (centres undefined) the logD [5] was 2.1.

`CCCCCCCCCCCCCCCCCC(=O)OC[C@@H]1O[C@H](n2ccc(N)nc2=O)CS1` showed a logP [6] of 1.82.

Work on `CCCCCCCC/C=C\CCCCCCCC(=O)NCc1ccc(O)c(OC)c1` yielded a logD [7] of 8.02.

Molecule `Cc1ccc(CCOCCCS(=O)(=O)CCNCCc2ccc(O)c3[nH]c(=O)sc23)cc1-c1nccs1` has a logD [8] of 1.44.

In the case of `CC[C@H](C)C(=O)O[C@H]1C[C@@H](C)C=C2C=C[C@H](C)[C@H](CC[C@@H]3C[C@@H](O)CC(=O)O3)[C@H]21`, the logD [9] is reported as 4.04.

In the case of `CCCCCCOP(=O)(OCC1CC(O)C(n2cnc3c(N)ncnc32)O1)OCC1OC(n2cc(C)c(=O)[nH]c2=O)CC1N=[N+]=[N-]` (centres undefined), the logP [10] is reported as 1.11.

`Cc1cn(C2CC(N=[N+]=[N-])C(COP(=O)(OCCSC(=O)C(C)(C)C)OCCSC(=O)C(C)(C)C)O2)c(=O)[nH]c1=O` (centres undefined) showed a logD [11] of 3.73.

Molecule `CCN1CCN(S(=O)(=O)c2cnc(O)c(-c3nc4c5n(nc4c(=O)[nH]3)CCCC5CCOC)c2)CC1` (centres undefined) has a logD [12] of 1.6.

`CCc1cccc2c3c([nH]c12)C(CC)(CC(=O)N[C@@H](C=O)[C@@H](O)[C@H](O)[C@H](O)CO)OCC3` (some centres undefined) showed a logD [13] of 1.35.

With `C=C1CC[C@@H]2[C@](C)(CO[C@@H]3O[C@H](CO)[C@@H](O)[C@H](O)[C@H]3O)CCC[C@@]2(C)[C@@H]1CCC1=CCOC1=O` the logD [14] was 0.44.

For `CCN(Cc1cc(Nc2ccnc3cc(Cl)ccc23)ccc1O)C(=O)N1CCN(C)CC1`, the logD [15] was 3.43.

With `CC[C@H](C)C(=O)O[C@H]1C[C@H](O)C=C2C=C[C@H](C)[C@H](CC[C@@H]3C[C@@H](O)CC(=O)O3)[C@H]21` the logD [16] was 2.45.

`FCCCCC1OC2(CCN(Cc3ccccc3)CC2)c2ccccc21` (centres undefined) showed a logP [17] of 4.06.

For `COc1cc2ncnc(N3CCC(n4c(=O)c5cc(C)ccc5n(C)c4=O)CC3)c2cc1OC`, the logD [18] was 3.14.

In the case of `CC1C=C(C(=O)Nc2ccc(-c3ccccc3S(N)(=O)=O)cc2)N(c2ccc3ccnc(N)c3c2)N1` (centres undefined), the logP [19] is reported as 2.6.

Work on `O=C(OC(C(F)(F)F)C(F)(F)F)N1CCC(C(O)(c2ccc3c(c2)OCO3)c2ccc3c(c2)OCO3)CC1` yielded a logD [20] of 4.67.

`COc1ccc2cccc(N3CCN(CCNC(=O)c4ccc(F)cc4)CC3)c2c1` showed a logD [21] of 4.14.

In the case of `CCOC(=O)OC(C)OC(=O)c1cn2c3c(c(N4CCN(C)CC4)c(F)cc3c1=O)OCC2C` (centres undefined), the logP [22] is reported as 0.44.

For `CCCCCCCOc1cccc(NC(=O)OC2CCCCC2n2ccnc2)c1` (centres undefined), the logD [23] was 5.64.

With `CCC(C)c1ccc(N2CCCN(c3ccc(C(C)CC)cc3)C2=N)cc1` (centres undefined) the logD [24] was 5.28.

Molecule `CC(=O)O[C@]1(C(C)=O)CC[C@H]2[C@@H]3CCC4=CC(=O)CC[C@]4(C)[C@H]3CC[C@@]21C` has a logP [25] of 3.79.

`CCCN(CCCCN1C(=O)CC2(CCCC2)C(O)C1=O)C1COc2cccc(OC)c2C1` (centres undefined) showed a logP [26] of 4.1.

`CN1CN(c2ccccc2)C2(CCN(CCCC(=O)c3ccc(F)cc3)CC2)C1=O` showed a logP [27] of 3.37.

In the case of `COc1cc(N)c(Cl)cc1C(=O)NC1CC2CCCC(C1)N2Cc1ccc(F)cc1` (centres undefined), the logP [28] is reported as 2.56.

In the case of `O=C(OCC1C2CC3CCC1N3CC2=Cc1ccc(I)c(Cl)c1)c1ccccc1` (centres undefined), the logP [29] is reported as 6.41.

`CCC1(C)C2CN(Cc3ccccc3)CC1CN(CC1CCCCC1)C2` (centres undefined) gave a logP [30] of 6.65.

`O=C(NO)C1CC(O)CN1C(=O)c1ccc(C#Cc2ccc(OCCCCCF)cc2)cc1` (centres undefined) showed a logD [31] of 2.5.

Molecule `COc1ccccc1C(c1cc2ccccc2oc1=O)c1cc2ccccc2oc1=O` has a logD [32] of 2.5.

Work on `OCCN1CCN(CC/C=C2/c3ccccc3Sc3ccc(C(F)(F)F)cc32)CC1` yielded a logP [33] of 3.83.

Molecule `C#CCN(Cc1ccc2[nH]c(C)nc(=O)c2c1)c1ccc(C(=O)NCc2cccc([N+](=O)[O-])c2)cc1` has a logP [34] of 3.7.

Molecule `CCC12C=C(C(=O)OCCOC(C)=O)n3c4c(c5ccccc53)CCN(CCC1)C42` (centres undefined) has a logP [35] of 4.5.

In the case of `CC(=O)OCC(=O)[C@@]1(O)[C@H](C)C[C@H]2[C@@H]3CCC4=CC(=O)C=C[C@]4(C)[C@@]3(F)[C@@H](O)C[C@@]21C`, the logP [36] is reported as 2.59.

For `C[C@]12CC[C@H]3[C@@H](CCC4=CC(=O)CC[C@@]43C)[C@@H]1CC[C@@H]2OC(=O)CCC(=O)O`, the logP [37] was 3.55.

`CC(=O)OC1C(c2ccc(=O)oc2)[C@@]2(C)CC[C@H]3[C@@H](CC[C@@H]4CC(O)CC[C@@]43C)[C@]23OC13` (some centres undefined) showed a logP [38] of 3.27.
